Data: PubChem BioAssay AID179 (DTP/NCI, 2004)
Calls of active or inactive are those of the source.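 How the source made its calls: active means compounds giving half or more protection of infected cells from virus-caused growth loss, again on retest; inactive means the rest.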

System: CEM cells HIV-1 protection, formazan growth assay
Assay: NCI AIDS Antiviral Assay
Settings: for IC50: measured here: growth of uninfected CEM cells
Method in brief: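 Protection of CEM cells against HIV-1 measured as cell growth via soluble formazan read-out, with five concentrations tested on both infected and uninfected cells; failure to protect may reflect toxicity.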

| Structure (SMILES) | EC50 [µM] | IC50 [µM] | outcome |
| --- | --- | --- | --- |
| CCCOC1=NC2=NC(OCCC)=NC3=C(Br)C=C(Br)C(=N1)N23 | > 42.7 | > 42.7 | – |
| CCOC(=O)c1sc(SC)nc1NC(=O)c1ccc([N+](=O)[O-])cc1 | > 200 | > 200 | – |
| CC1(C)C(c2ccccc2)=[N+]([O-])C(C)(C)N1O | > 200 | 170 | – |
| CC1=C(C(=O)Nc2ccc(Cl)c(Cl)c2)C(c2ccco2)C(C(=O)Nc2ccc(Cl)c(Cl)c2)=C(C)N1 | > 33.9 | 13.8 | – |
| CCC(=O)O[C@H](C)CC1SCCCS1 | > 214 | > 214 | – |
| CCOC(=O)/C(=C\c1ccccc1)[Se]c1ccccc1 | > 56.2 | > 56.2 | – |
| CCCN(CCC)CCCOC(=O)c1ccc2oc3ccc(C(=O)OCCCN(CCC)CCC)cc3c2c1 | > 112 | 6.61 | – |
| CN(C)c1ccc(/C=C2\C=Cc3ccccc32)cc1Br | > 8.32 | > 8.32 | – |
| O=c1[nH]nc(Cc2ccc(Cl)cc2)n1Nc1ccccc1 | > 200 | > 200 | – |
| O=S(=O)(O)SCCCNCCCCCCNCCCSS(=O)(=O)O | > 200 | 129 | – |
| CCOC(=O)c1nc2cc(C(F)(F)F)ccc2nc1Oc1ccc(C(=O)OC)cc1 | > 200 | 95.5 | – |
| S=c1sc2c(s1)SCc1cccc(n1)CSc1sc(=S)sc1SCc1cccc(n1)CS2 | > 200 | > 200 | – |
| O=C1C=CC(=O)N1n1c(-c2ccccc2)n[nH]c1=O | 95.5 | 955 | – |
| CN(C)c1ccc(C=Nc2ccc(Oc3ccc(Cl)cc3)c(Cl)c2)cc1 | > 200 | 28.2 | – |
| NC(CCSSCCC(N)P(=O)(O)O)P(=O)(O)O (stereo not given) | > 200 | > 200 | – |
| CCOC(=O)C(NC(=O)c1ccccc1)(Nc1cc(C)on1)C(F)(F)F (stereo not given) | > 200 | > 200 | – |
| CC(CCC(=O)O)(CCC(=O)O)[N+](=O)[O-] | > 1150 | > 1150 | – |
| O=C(OCCC[P+](c1ccccc1)(c1ccccc1)c1ccccc1)c1ccccc1 | > 200 | 3.39 | – |
| O=C(NC12CC3CCC1CC(C3)C2)[C@@H]1CCCN1C(=O)OCc1ccccc1 (stereo not given in full) | – | – | inactive |
| O=[N+]([O-])c1cc([As](=O)(O)O)ccc1Cl | > 200 | > 200 | – |
| COc1ccc(C/C(=N/O)C(=O)NCCc2cc(Br)c(OCCCN(C)C)c(Br)c2)cc1Br | – | – | inactive |

| Structure (SMILES) | EC50 [µM] | IC50 [µM] | outcome |
| --- | --- | --- | --- |
| CC(C)c1cccc(C(C)C)c1N1C(=O)C(=O)C(c2nc3ccccc3o2)C(=O)C1=O | – | – | inactive |
| Oc1cc(Br)cc2cccnc12 | – | – | inactive |
| CN(C)c1ccc(C(=C2C=CC(=[N+](C)C)C=C2)c2c(O)c(S(=O)(=O)O)cc3cc(S(=O)(=O)O)ccc23)cc1 | – | – | inactive |
| CCOc1ccc(NC(=O)CC2SC(=Nc3ccc(C)cc3)NC2=O)cc1 (stereo not given) | > 67.6 | > 67.6 | – |
| O=S(=O)(O)c1ccc(SSc2ccc(S(=O)(=O)O)cc2)cc1 | > 200 | > 200 | – |
| CC1=C([N+](=O)[O-])[C@@H](N2CCOCC2)[C@](C)(N2CCOCC2)S1 | – | – | inactive |
| CN(C)C(=S)SSSC(=S)N(C)C | > 20 | 0.513 | – |
| CCOC(=O)[C@H](Cc1ccccc1)NC(=O)c1nc[nH]c1[N+](=O)[O-] | > 537 | 372 | – |
| COc1ccccc1C1OC(c2ccccc2OC)C2CCN(C)C2(C)O1 (stereo not given) | > 200 | > 200 | – |
| CC1C2CC(CC2N)C1(C)C (stereo not given) | > 162 | > 162 | – |
| COC(=O)c1cc(C(=CCC[C@H]2CC[C@@]3(C)C(CCC4C3CC[C@@]3(C)C4CC[C@@H]3C(C)CCCC(C)C)C2)c2cc(Cl)c(OC(=O)c3ccccc3)c(C(=O)OC)c2)cc(Cl)c1OC(=O)c1ccccc1 (stereo not given in full) | > 200 | > 200 | – |
| O=C(Nc1nc2ccsc2s1)c1ccccc1 | > 501 | > 501 | – |
| CCCNC(=O)N(CC)S(=O)(=O)c1ccc(Cl)cc1 | – | – | inactive |
| COC(=O)c1ccc2c(c1)CC1(C2)Cc2ccccc2C1=O (stereo not given) | > 200 | 28.2 | – |
| O=C(c1ccccc1)c1cc(N=Nc2ccc(/C=C/c3ccc(N=Nc4cc(C(=O)c5ccccc5)c5cccnc5c4O)cc3S(=O)(=O)O)c(S(=O)(=O)O)c2)c(O)c2ncccc12 | > 38.9 | > 38.9 | – |
| COc1ccc(CC2NCCc3cc(OC)c(OC)cc32)cc1Br (stereo not given) | > 240 | 33.9 | – |
| O=c1n(CCCN2CCN(c3cccc(Cl)c3)CC2)nc2n1-c1ccc3ccccc3c1SC2 | > 200 | > 200 | – |
| COc1ccc(Cl)[c]([Bi]([c]2cc(OC)ccc2Cl)[c]2cc(OC)ccc2Cl)c1 | > 39.8 | > 39.8 | – |
| CC(C)(C)c1cc(C(c2ccccc2)c2ccccc2)cc(C(C)(C)C)c1O | > 60.3 | 33.1 | – |
| COc1cc(=O)n2c3ccccc3n(C)c2c1C#N | > 100 | 56.2 | – |
| N/N=C(\N)c1ccc(NC(=O)c2ccc(C(=O)Nc3ccc(/C(N)=N/N)cc3)cc2)cc1 | > 200 | 93.3 | – |

| Structure (SMILES) | EC50 [µM] | IC50 [µM] | outcome |
| --- | --- | --- | --- |
| Cc1cc(S(=O)(=O)n2ccnc2Oc2ccccc2)c(SSc2cc(Cl)c(C)cc2S(=O)(=O)n2ccnc2Oc2ccccc2)cc1Cl | 129 | > 200 | – |
| Cc1nc2c(=O)n3c4c(cccc4c2o1)CCC3 | > 200 | 107 | – |
| CCOC(=O)c1cc(-c2ccccn2)c(=O)n2ccccc12 | > 200 | 49 | – |
| O=C(/C(=N/N(C(=O)c1ccccc1)c1ccccc1)c1ccccc1)c1ccccc1 | – | – | inactive |
| Cc1ccccc1C1SCc2nc3ccccc3n21 (stereo not given) | – | – | inactive |
| CC[C@H]1CN2CCc3cc(OC)c(OC)cc3[C@@H]2C[C@@H]1C[C@H]1NCCc2cc(OC)c(OC)cc21 | – | – | inactive |
| NCCC1([N+](=O)[O-])CCNCC1 | > 200 | > 200 | – |
| COc1ccc2c(c1OC)Oc1c(OC)ccc3c1C(C2)N(C)C[C@@H]3O (stereo not given in full) | > 251 | > 251 | – |
| O=C(CC(=O)N1N=C(n2ccc3ccccc32)CC1c1ccccc1)Nc1cccc(Cl)c1 (stereo not given) | – | – | inactive |
| COc1c2occc2c(OC(C)C(=O)O)c2c(O)cc(=O)oc12 (stereo not given) | > 282 | > 282 | – |
| Cc1cc(C(F)(F)F)nc2nc3ccccc3n12 | > 200 | > 200 | – |
| Cc1cc(C)nc(NS(=O)(=O)c2ccc(NNC(=O)c3cccc4c(NNc5ccc(S(=O)(=O)Nc6nc(C)cc(C)n6)cc5)c5ccccc5nc34)cc2)n1 | > 200 | 21.9 | – |
| CC1=NC(C)(CO)CO1 (stereo not given) | > 200 | > 200 | – |
| Cc1cccc2c(=O)c3c(O)cc(O)cc3n(C)c12 | 145 | > 200 | – |
| C=CCC(C(=O)Nc1cccc2[nH]cnc12)C(=O)OCC (stereo not given) | > 200 | 195 | – |
| COc1ccc(Nc2nnc(CCCCCCCCc3nnc(Nc4ccc(OC)cc4)o3)o2)cc1 | > 200 | > 200 | – |
| COC(=O)C(C(=O)C(=O)Nc1ccc(C)cc1C)c1csc(-n2nc(-c3ccccc3)cc2-c2ccccc2)n1 (stereo not given) | > 158 | 81.3 | – |
| O=C1OC(=O)C2C3CCCCC3=C3CCCCC3C12 (stereo not given) | > 200 | > 200 | – |
| CC1(C)N=C(C(N)=O)c2ncn(N)c2N1 | > 200 | > 200 | – |
| CC1(C)c2ccccc2N2C(c3ccccc3)=NOC21C (stereo not given) | > 25.7 | > 25.7 | – |
| [N-]=[N+]=NC1=C(c2ccccc2)C(=O)c2cccc3cccc1c23 | > 200 | 7.76 | – |
